From patent US7375132B2, “Compounds and methods for inhibiting cellular responses to hypoxia” (University of Mississippi, priority 2004, dated 2008)

How the values were obtained:
HIF-1 [1] = test: Cell-based HIF-1 luciferase reporter assay (pTK-HRE3-luc), HIF-1 activation by hypoxia; conditions: Homo sapiens; T47D cells; 1% O2/5% CO2/94% N2, 16 hr; read-out: IC50, inhibition of hypoxia-induced HIF-1 activity
Text: To identify functional antagonists of HIF-1, the present inventors have established a cell-based reporter assay for inhibitors of HIF-1 in hypoxia responsive human breast carcinoma T47D cells. Breast cancer was chosen as the target for this drug discovery effort, due to the high incidence of this disease and the urgent need to identify chemotherapeutic agents that target tumor hypoxia, the comprehensive knowledge base of breast cancer etiology, and the availability of well-studied human breast carcinoma cell lines as in vitro models. In addition, HIF-1α overexpression is associated with advanced stages of breast cancer and poor prognosis. The activity of HIF-1 is monitored using a luciferase reporter under the control of HRE from the erythropoietin gene (pTK-HRE3-luc). Natural product-rich extracts (dissolved in DMSO) are evaluated for activities that inhibit HIF-1 activation by hypoxia (about: 1% O2/5% CO2/94% N2).
For these studies, exponentially grown T47D cells are transiently transfected with the pTK-HRE3-luc and pGL3-control (Promega) reporters and plated into 96-well plates. […]
About 24 hours after plating, a compound of Formula (I) is added to the transfected T47D cells. […] At the end of incubation, the cells are harvested and both luciferase activities determined using a Luciferase Assay System (Promega). […]

HIF-1 [2] = test: Cell-based HIF-1 luciferase reporter assay, HIF-1 activation by iron chelator 1,10-phenanthroline (chemical hypoxia); design: species or system human; conditions: T47D cells; 1,10-phenanthroline at 10 μM; compound about 3 μM (FIG. 3)
Protocol: For these studies, exponentially grown T47D cells are transiently transfected with the pTK-HRE3-luc and pGL3-control (Promega) reporters and plated into 96-well plates. The pGL3-control reporter contains a modified reporter (cloned from Photinus pyralis) under the control of a SV40 early promoter and provides low-level, constitutive expression in mammalian cells as internal control.
About 24 hours after plating, a compound of Formula (I) is added to the transfected T47D cells. Following incubation at about 37° C. for about 30 minutes, the cells are exposed to hypoxic conditions (1% O2/5% CO2/94% N2) or chemical hypoxia (iron chelator 1,10-phenanthroline at 10 μM) for 16 hr. At the end of incubation, the cells are harvested and both luciferase activities determined using a Luciferase Assay System (Promega). Luciferase activity from the pTK-HRE3-luc reporter was compared to luciferase activity from the pGL3-control reporter.

T47D cells [3] = test: Cell viability by Neutral Red assay under hypoxic conditions; assay type: cell-based, human; conditions: similar hypoxic conditions
Text: The data presented in FIGS. 2 and 3 are averages from one representative experiment performed in quadruplicate and the bars represent standard errors. Accordingly, a compound of Formula (I) is shown to have a selective effect on physiological hypoxia-induced HIF-1 activation, relative to “chemical hypoxia”-induced HIF-1. To rule out false positives associated with cytotoxicity, the effects of Formula (I) on cell viability are examined.

secreted VEGF protein [4] = test: Secreted VEGF protein ELISA after hypoxic treatment; assay type: cell-based, human; conditions: concentrations of 1 μM and above; hypoxic treatment of T47D cells
Protocol: (§1) Since secreted VEGF protein is the bioactive form, compounds that can reduce the level of secreted VEGF protein represent potential tumor angiogenesis inhibitors. Thus, compounds that can inhibit both hypoxic activation of HIF-1 and hypoxic induction of secreted VEGF protein represent “true” leads that target tumor hypoxia. The effects of compounds of the present invention on hypoxic induction of secreted VEGF protein are examined in T47D cells. Exponentially grown T47D cells were plated at the density of about 30,000 cells/well into 96-well plates. Compound treatment and hypoxic exposure were the same as described. Following incubation, secreted VEGF protein concentrations in the conditioned media are determined by ELISA (R & D Systems) and the data normalized by the number of viable cells. […] Therefore, in addition to its effect on HIF-1, compounds of the present invention have a potential therapeutic application as an agent to inhibit tumor angiogenesis.

secreted VEGF protein [5] = test: Secreted VEGF protein ELISA after 1,10-phenanthroline (chemical hypoxia); assay type: cell-based, human; conditions: T47D cells pretreated with 1,10-phenanthroline (chemical hypoxia)
Protocol: as §1

HIF-1α protein = test: Western blot of nuclear HIF-1α protein induced by hypoxia; assay type: cell-based, human; conditions: T47D cells; hypoxia about 4 hours; nuclear extract Western blot
Protocol: Since the availability of the oxygen-regulated HIF-1α protein determines the biological activity of HIF-1 and hypoxia induces HIF-1α protein, the effect of compounds of the present invention on the induction of HIF-1α protein are examined in T47D cells. Briefly, exponentially grown T47D cells are exposed to a compound of Formula (I) for about 30 minutes. The incubation then continues for about 4 hours under hypoxic conditions. Nuclear extracts are prepared from control and treated cells. The HIF-1αand HIF-1β proteins in the nuclear extract samples are detected by Western blot, using HIF-1αand HIF-1β specific antibodies (Novus Biologicals). […] Significant inhibition of HIF-1α protein is observed at about 100 nM and complete inhibition is observed at about 1 μM. It is reasonable to conclude that the selectivity of the compounds of the present invention towards hypoxia-activated HIF-1 is caused by selective blockade of the hypoxic induction of HIF-1α protein.

T47D cells [6] = test: T47D cell survival under hypoxic conditions (FIG. 8); assay type: cell-based, human
[7] = tested on: mitochondrial electron transport pathway; test: Mitochondrial oxygen consumption (FIG. 9); assay type: biochemical; conditions: in the presence of glutamate/malate, ADP; increasing amounts of compound
Protocol: FIG. 9 is a graph showing that a compound of formula 1 inhibits the mitochondrial electron transport pathway. Mitochondrial oxygen consumption was measured, in this example, in the presence of glutamate/malate, ADP and increasing amounts of a compound of formula 1.

## CC1=CC(O)C(C(C)CCC2C(C)C3(C)CCC2(C)O3)CC1 (stereo not drawn) [Formula (I), LAURENDITERPENOL]
HIF-1 [1]
  IC50: ~400 nM
HIF-1 [2]
  effect on iron chelator-induced HIF-1: no statistically significant effect
T47D cells [3]
  effect on T47D cell viability: marginal decrease
Secreted VEGF protein [4]
  decrease in level of secreted VEGF protein: about 60%
Secreted VEGF protein [5]
  effect on secreted VEGF protein levels: do not affect
HIF-1α protein
  concentration at which complete inhibition of HIF-1α protein is observed: about 1 μM
  concentration at which significant inhibition of HIF-1α protein is observed: about 100 nM
T47D cells [6]
  effect on T47D cell survival: significantly reduced
[7]
  effect on mitochondrial electron transport pathway (oxygen consumption): inhibits
